# Test results: patent US10323022B2, “Pyrrolidinyl urea, pyrrolidinyl thiourea and pyrrolidinyl guanidine compounds as TrkA kinase inhibitors” (Array BioPharma Inc., priority 2011, dated 2019)
# pIC50: −log10 of the molar value.
# Target: TrkA (Homo sapiens (Human), UniProt P04629)
# Assay: TrkA Omnia Assay
# Assay type: biochemical
# Conditions: averaged IC50; 20 nM enzyme, 500 μM ATP, 10 μM peptide substrate
# Procedure, shortened: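 Recombinant TrkA (20 nM) preincubated 10 min at ambient temperature with compound, then Omnia Tyr Peptide #4 (10 μM) and ATP (500 μM) added in 25 mM MOPS pH 7.5, 5 mM MgCl2, 0.005% Triton X-100. Fluorescence (ex 360/em 485 nm) followed continuously for 70 min; IC50 from initial rates by 4- or 5-parameter logistic fit.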
# Sequence of TrkA (P04629 33-796): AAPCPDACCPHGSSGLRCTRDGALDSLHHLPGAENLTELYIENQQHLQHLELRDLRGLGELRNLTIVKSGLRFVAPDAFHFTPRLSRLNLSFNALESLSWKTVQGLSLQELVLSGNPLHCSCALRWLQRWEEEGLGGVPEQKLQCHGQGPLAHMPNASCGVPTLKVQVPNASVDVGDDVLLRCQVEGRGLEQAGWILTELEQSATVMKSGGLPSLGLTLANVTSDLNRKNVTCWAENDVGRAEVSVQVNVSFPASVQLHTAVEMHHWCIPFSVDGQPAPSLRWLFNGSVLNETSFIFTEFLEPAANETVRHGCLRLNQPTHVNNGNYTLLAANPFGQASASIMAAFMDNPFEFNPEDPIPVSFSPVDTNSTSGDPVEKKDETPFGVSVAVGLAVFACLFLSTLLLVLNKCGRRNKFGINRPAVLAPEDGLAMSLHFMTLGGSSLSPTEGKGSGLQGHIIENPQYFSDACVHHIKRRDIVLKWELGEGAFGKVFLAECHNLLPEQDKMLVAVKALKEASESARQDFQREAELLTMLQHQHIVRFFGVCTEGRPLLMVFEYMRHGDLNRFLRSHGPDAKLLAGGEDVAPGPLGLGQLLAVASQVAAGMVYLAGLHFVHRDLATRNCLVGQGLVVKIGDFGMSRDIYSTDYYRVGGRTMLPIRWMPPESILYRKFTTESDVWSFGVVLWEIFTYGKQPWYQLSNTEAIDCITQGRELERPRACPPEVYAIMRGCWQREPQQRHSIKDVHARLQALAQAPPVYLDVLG
row,SMILES,pIC50
1,"COCCN1C[C@@H](NC(=O)Nc2c(Br)c(-c3cnn(C)c3)nn2-c2ccccc2)[C@H](c2cc(F)cc(F)c2)C1 [Example 419, 1-(4-bromo-1′-methyl-1-phenyl-1H,1′H-[3,4′-bipyrazol]-5-yl)-3-((3S,4R)-4-(3,5-difluorophenyl)-1-(2-methoxyethyl)pyrrolidin-3-yl)urea]",> 7.00
2,COCCN1C[C@@H](NC(=O)Nc2c(Br)c(-c3cnn(C)c3)nn2-c2ccccc2)[C@H](c2ccc(F)cc2)C1 [Example 421],> 7.00
3,"COCCN1C[C@@H](NC(=O)Nc2c(Cl)c(-c3cnn(C)c3)nn2-c2ccccc2)[C@H](c2ccccc2)C1 [Example 425, 1-(4-chloro-1′-methyl-1-phenyl-1H,1′H-[3,4′-bipyrazol]-5-yl)-3-((3S,4R)-4-phenyl-1-(2-methoxyethyl)pyrrolidin-3-yl)urea]",> 7.00
4,"COCCN1C[C@@H](NC(=O)Nc2c(Br)c(-c3ccccc3)nn2-c2ccccc2)[C@H](c2cc(F)cc(F)c2)C1 [Example 427, 1-(4-bromo-1,3-diphenyl-1H-pyrazol-5-yl)-3-((3S,4R)-4-(3,5-difluorophenyl)-1-(2-methoxyethyl)pyrrolidin-3-yl)urea]",> 7.00
5,"COCCN1C[C@@H](NC(=O)Nc2c(Br)c(-c3ccccc3)nn2-c2ccccc2)[C@H](c2ccc(F)cc2)C1 [Example 428, 1-(4-bromo-1,3-diphenyl-1H-pyrazol-5-yl)-3-((3S,4R)-4-(4-fluorophenyl)-1-(2-methoxyethyl)pyrrolidin-3-yl)urea]",> 7.00
6,"COCCN1C[C@@H](NC(=O)Nc2c(F)c(-c3cnn(C)c3)nn2-c2ccccc2)[C@H](c2cncc(F)c2)C1 [Example 432, 1-(4-fluoro-1′-methyl-1-phenyl-1H,1′H-[3,4′-bipyrazol]-5-yl)-3-((3S,4R)-4-(5-fluoropyridin-3-yl)-1-(2-methoxyethyl)pyrrolidin-3-yl)urea]",6.00 to 7.00
7,COCCN1C[C@@H](NC(=O)Nc2c(Br)c(C)nn2-c2ccccc2)[C@H](c2cncc(F)c2)C1 [Example 433],> 7.00
8,"COCCN1C[C@@H](NC(=O)Nc2c(F)c(-c3cnn(C)c3)nn2-c2ccccc2)[C@H](c2cc(F)cc(F)c2)C1 [Example 439, 1-((3S,4R)-4-(3,5-difluorophenyl)-1-(2-methoxyethyl)pyrrolidin-3-yl)-3-(4-fluoro-1′-methyl-1-phenyl-1H,1′H-[3,4′-bipyrazol]-5-yl)urea]",> 7.00
9,"COCCN1C[C@@H](NC(=O)Nc2c(Br)c(-c3cnn(C)c3)nn2-c2ccccc2)[C@H](c2cncc(F)c2)C1 [Example 440, 1-(4-bromo-1′-methyl-1-phenyl-1H,1′H-[3,4′-bipyrazol]-5-yl)-3-((3S,4R)-4-(5-fluoropyridin-3-yl)-1-(2-methoxyethyl)pyrrolidin-3-yl)urea]",> 7.00
10,"COCCN1C[C@@H](NC(=O)Nc2c(C)c(-c3cnn(C)c3)nn2-c2ccccc2)[C@H](c2ccc(F)cc2)C1 [Example 441, 1-(1′,4-dimethyl-1-phenyl-1H, 1′H-[3,4′-bipyrazol]-5-yl)-3-((3S,4R)-4-(4-fluorophenyl)-1-(2-methoxyethyl)pyrrolidin-3-yl)urea]",> 7.00
11,"COCCN1C[C@@H](NC(=O)Nc2c(C)c(-c3cnn(C)c3)nn2-c2ccccc2)[C@H](c2cc(F)cc(F)c2)C1 [Example 442, 1-(1′,4-dimethyl-1-phenyl-1H, 1′H-[3,4′-bipyrazol]-5-yl)-3-((3S,4R)-4-(3,5-difluorophenyl)-1-(2-methoxyethyl)pyrrolidin-3-yl)urea]",> 7.00
12,"COCCN1C[C@@H](NC(=O)Nc2c(C)c(-c3cnn(C)c3)nn2-c2ccccc2)[C@H](c2cc(F)c(F)c(F)c2)C1 [Example 443, 1-(1′,4-dimethyl-1-phenyl-1H, 1′H-[3,4′-bipyrazol]-5-yl)-3-((3S,4R)-4-(3,4,5-trifluorophenyl)-1-(2-methoxyethyl)pyrrolidin-3-yl)urea]",> 7.00
13,"COCCN1C[C@@H](NC(=O)Nc2c(C)c([C@H]3C[C@@H](O)C3)nn2-c2ccccc2)[C@H](c2ccc(F)cc2)C1 [Example 454, 1-((3S,4R)-4-(4-fluorophenyl)-1-(2-methoxyethyl)pyrrolidin-3-yl)-3-(3-(cis-3-hydroxycyclobutyl)-4-methyl-1-phenyl-1H-pyrazol-5-yl)urea]",> 7.00

# Next, values leading:
row,pIC50,SMILES
1,> 7.00,"COCCN1C[C@@H](NC(=O)Nc2c(Cl)c(C(C)(C)C#N)nn2-c2ccccc2)[C@H](c2ccc(F)c(F)c2)C1 [Example 418, 1-(4-chloro-3-(2-cyanopropan-2-yl)-1-phenyl-1H-pyrazol-5-yl)-3-((3S,4R)-4-(3,4-difluorophenyl)-1-(2-methoxyethyl)pyrrolidin-3-yl)urea]"
2,> 7.00,"COCCN1C[C@@H](NC(=O)Nc2c(Br)c(-c3cnn(C)c3)nn2-c2ccccc2)[C@H](c2ccc(F)c(F)c2)C1 [Example 420, 1-(4-bromo-1′-methyl-1-phenyl-1H,1′H-[3,4′-bipyrazol]-5-yl)-3-((3S,4R)-4-(3,4-difluorophenyl)-1-(2-methoxyethyl)pyrrolidin-3-yl)urea]"
3,> 7.00,"COCCN1C[C@@H](NC(=O)Nc2c(Cl)c(-c3cnn(C)c3)nn2-c2ccccc2)[C@H](c2cc(F)cc(F)c2)C1 [Example 422, 1-(4-chloro-1′-methyl-1-phenyl-1H,1′H-[3,4′-bipyrazol]-5-yl)-3-((3S,4R)-4-(3,5-difluorophenyl)-1-(2-methoxyethyl)pyrrolidin-3-yl)urea]"
4,> 7.00,"COCCN1C[C@@H](NC(=O)Nc2c(Cl)c(-c3cnn(C)c3)nn2-c2ccccc2)[C@H](c2ccc(F)c(F)c2)C1 [Example 423, 1-(4-chloro-1′-methyl-1-phenyl-1H,1′H-[3,4′-bipyrazol]-5-yl)-3-((3S,4R)-4-(3,4-difluorophenyl)-1-(2-methoxyethyl)pyrrolidin-3-yl)urea]"
5,> 7.00,"COCCN1C[C@@H](NC(=O)Nc2c(Cl)c(-c3cnn(C)c3)nn2-c2ccccc2)[C@H](c2ccc(F)cc2)C1 [Example 424, 1-(4-chloro-1′-methyl-1-phenyl-1H,1′H-[3,4′-bipyrazol]-5-yl)-3-((3S,4R)-4-(4-fluorophenyl)-1-(2-methoxyethyl)pyrrolidin-3-yl)urea]"
6,> 7.00,"COCCN1C[C@@H](NC(=O)Nc2c(Cl)c(-c3ccccc3)nn2-c2ccccc2)[C@H](c2cc(F)cc(F)c2)C1 [Example 426, 1-(4-chloro-1,3-diphenyl-1H-pyrazol-5-yl)-3-((3S,4R)-4-(3,5-difluorophenyl)-1-(2-methoxyethyl)pyrrolidin-3-yl)urea]"
7,> 7.00,COCCN1C[C@@H](NC(=O)Nc2c(Cl)c(C)nn2-c2ccccc2)[C@H](c2cncc(F)c2)C1 [Example 434]
8,> 7.00,"COCCN1C[C@@H](NC(=O)Nc2c(F)c(-c3cnn(C)c3)nn2-c2ccccc2)[C@H](c2ccc(F)c(F)c2)C1 [Example 438, 1-((3S,4R)-4-(3,4-difluorophenyl)-1-(2-methoxyethyl)pyrrolidin-3-yl)-3-(4-fluoro-1′-methyl-1-phenyl-1H,1′H-[3,4′-bipyrazol]-5-yl)urea]"
9,> 7.00,"COCCN1C[C@@H](NC(=O)Nc2c(C)c(-c3cnn(Cc4ccc(OC)cc4)c3)nn2-c2ccccc2)[C@H](c2ccc(F)c(F)c2)C1 [Example 446, 1-((3S,4R)-4-(3,4-difluorophenyl)-1-(2-methoxyethyl)pyrrolidin-3-yl)-3-(1′-(4-methoxybenzyl)-4-methyl-1-phenyl-1H, 1′H-[3,4′-bipyrazol]-5-yl)urea]"
10,> 7.00,COCCN1C[C@@H](NC(=O)Nc2c(C)c(-c3cn[nH]c3)nn2-c2ccccc2)[C@H](c2ccc(F)c(F)c2)C1 [Example 447]
11,> 7.00,"COCCN1C[C@@H](NC(=O)Nc2c(Cl)c(CCOC(C)=O)nn2-c2ccccc2)[C@H](c2ccc(F)c(F)c2)C1 [Example 448, 2-(4-chloro-5-(3-((3S,4R)-4-(3,4-difluorophenyl)-1-(2-methoxyethyl)pyrrolidin-3-yl)ureido)-1-phenyl-1H-pyrazol-3-yl)ethyl acetate]"
12,> 7.00,"COCCN1C[C@@H](NC(=O)Nc2c(Cl)c(CCO)nn2-c2ccccc2)[C@H](c2ccc(F)c(F)c2)C1 [Example 449, 1-(4-chloro-3-(2-hydroxyethyl)-1-phenyl-1H-pyrazol-5-yl)-3-((3S,4R)-4-(3,4-difluorophenyl)-1-(2-methoxyethyl)pyrrolidin-3-yl)urea]"
13,> 7.00,"COCCN1C[C@@H](NC(=O)Nc2c(C)c([C@H]3C[C@@H](O)C3)nn2-c2ccccc2)[C@H](c2ccc(F)c(F)c2)C1 [Example 450, 1-((3S,4R)-4-(3,4-difluorophenyl)-1-(2-methoxyethyl)pyrrolidin-3-yl)-3-(3-(cis-3-hydroxycyclobutyl)-4-methyl-1-phenyl-1H-pyrazol-5-yl)urea]"
14,> 7.00,"COCCN1C[C@@H](NC(=O)Nc2c(C)c([C@H]3C[C@H](O)C3)nn2-c2ccccc2)[C@H](c2ccc(F)c(F)c2)C1 [Example 451, 1-((3S,4R)-4-(3,4-difluorophenyl)-1-(2-methoxyethyl)pyrrolidin-3-yl)-3-(3-(trans-3-hydroxycyclobutyl)-4-methyl-1-phenyl-1H-pyrazol-5-yl)urea]"
15,> 7.00,"COCCN1C[C@@H](NC(=O)Nc2c(Cl)c([C@H]3C[C@@H](O)C3)nn2-c2ccccc2)[C@H](c2ccc(F)c(F)c2)C1 [Example 452, 1-(4-chloro-3-(cis-3-hydroxvcyclobutyl)-1-phenyl-1H-pyrazol-5-yl)-3-((3S,4R)-4-(3,4-difluorophenyl)-1-(2-methoxyethyl)pyrrolidin-3-yl)urea]"
16,> 7.00,"COCCN1C[C@@H](NC(=O)Nc2c(Cl)c([C@H]3C[C@H](O)C3)nn2-c2ccccc2)[C@H](c2ccc(F)c(F)c2)C1 [Example 453, 1-(4-chloro-3-((1r,3S)-3-hydroxycyclobutyl)-1-phenyl-1H-pyrazol-5-yl)-3-(trans-4-(3,4-difluorophenyl)-1-(2-methoxyethyl)pyrrolidin-3-yl)urea]"
